Source: US10301286B2, “Piperazine derivative” (Astellas Pharma Inc., priority 2015, dated 2019)
Where a name gives a salt, the structure may show the parent alone.

Assays:
Assay type in all cases: cell-based
[1] = target: rat MC4 receptor (Rattus norvegicus (Rat), UniProt P70596); assay: Rat MC4 receptor activation, cAMP production in cells expressing rat MC4 receptor; settings: FreeStyle 293-F cells transiently expressing rat MC4 receptor, α-MSH maximum = 100%
Source text: (1) Construction of Rat MC4 Receptor-Expressing Vector
A rat MC4 receptor gene (GenBank Accession No.: NM_013099.2) was introduced into an expression vector pcDNA™ 3.1/V5-His TOPO (registered trademark) (Thermo Fisher Scientific Inc.).
(2) Construction of Cells Transiently Expressing Rat MC4 Receptor
(§1) An expression vector for a rat MC4 receptor was introduced into FreeStyle™ 293-F cell (Thermo Fisher Scientific Inc.). For the introduction, electroporation was employed. That is, 1×10^7 FreeStyle™ 293-F cell were suspended in 80 μL of an electroporation buffer (Thermo Fisher Scientific Inc.), and 20 μg of the expression vector was added thereto. The resultant was put into a cuvette (OC-100 Processing Assembly, MaxCyte, Inc.) and electroporated with MaxCyte STX (registered trademark) (MaxCyte, Inc.). The cells were cultured over one day, suspended in a Cell Banker (registered trademark) 1 (JUJI FIELD Inc.), and stored frozen until use.
(§2) (3) Measurement of Amount of cAMP Produced
Measurement was carried out in accordance with the attached instructions, using a LANCE (registered trademark) Ultra cAMP Kit (PerkinElmer, Inc.). That is, after dissolution in DMSO, the test compound (a final concentration of 1 pM to 30 μM) diluted with an assay buffer (Hank's balanced salt solution, 5 mM HEPES, 0.5 mM IBMX, 0.1% bovine serum albumin, pH 7.4), or α-MSH (Bachem Inc., a final concentration of 1 pM to 30 μM) was added to OptiPlate-384 (PerkinElmer, Inc.). Furthermore, a suspension of cells transiently expressing the rat MC4 receptor, that had been prepared using the assay buffer, was added thereto at 1,000 cells/well, followed by being left to stand at room temperature for about 1 hour. Thereafter, an Eu-cAMP tracer solution and an ULight™-anti-cAMP solution were added thereto, followed by being left to stand at room temperature for about 1 hour. The amount of cAMP was calculated using EnVision (registered trademark) (PerkinElmer Inc.).
(§3) For the agonistic activity, an efficacy (EC50 (μM)) was calculated by a non-linear regression method with a Sigmoid-Emax model, by defining the maximum reaction with α-MSH as 100% and the reaction with the vehicle alone as 0%, respectively.

[2] = target: human MC4 receptor (Homo sapiens (Human), UniProt P32245); assay: Human MC receptor activation, cAMP production in cells expressing human MC4 receptor; settings: FreeStyle 293-F cells transiently expressing human MC4 receptor, α-MSH maximum = 100%
Source text: (§4) (1) Construction of Human MC Receptor-Expressing Vector
(§5) A human MC4 receptor gene (GenBank Accession No.: NM_005912.2), a human MC1 receptor gene (GenBank Accession No.: NM_002386.3), or a human MC3 receptor gene (GenBank Accession No.: NM_019888.3) was introduced into an expression vector pcDNA™ 3.1/V5-His TOPO (registered trademark) (Thermo Fisher Scientific Inc.).
(§6) (2) Construction of Cells Transiently Expressing Human MC Receptor
as §1, with “a human MC4, MC1, or MC3” for “a rat MC4”, “Scientific Inc., product number: R790-07).” for “Scientific Inc.).”, “Scientific Inc., product number: B201-100),” for “Scientific Inc.),”, “MaxCyte SIX” for “MaxCyte STX”, “Inc.), product number: BLC-1),” for “Inc.),”, “until their” for “until”
as §2
(§7) Measurement was carried out by using a LANCE (registered trademark) Ultra cAMP Kit (PerkinElmer, Inc.) in accordance with the attached instructions. That is, after dissolution in DMSO, the test compound (a final concentration of 1 pM to 30 μM) diluted with an assay buffer (Hank's balanced salt solution, 5 mM 4-(2-hydroxyethyl)-1-piperazineethanesulfonic acid (HEPES), 0.5 mM 3-isobutyl-1-methylxanthine (IBMX), 0.1% bovine serum albumin, pH 7.4), or α-MSH (Bachem Inc., a final concentration of 1 pM to 30 μM) was added to OptiPlate-384 (PerkinElmer, Inc.). Furthermore, a suspension of cells transiently expressing the human MC4, MC1, or MC3 receptor prepared by using the assay buffer was added thereto at 1,000 cells/well, followed by being left to stand at room temperature for about 1 hour. Thereafter, an Eu-cAMP tracer solution and an ULight™-anti-cAMP solution were added thereto, followed by being left to stand at room temperature for about 1 hour. The amount of cAMP was calculated using EnVision (registered trademark) (PerkinElmer Inc.).
as §3

[3] = target: human MC3 receptor (Homo sapiens (Human), UniProt P41968); assay: Human MC receptor activation, cAMP production in cells expressing human MC3 receptor; settings: FreeStyle 293-F cells transiently expressing human MC3 receptor, α-MSH maximum = 100%
Source text: as §4, §5, §6
as §1, with “a human MC4, MC1, or MC3” for “a rat MC4”, “Scientific Inc., product number: R790-07).” for “Scientific Inc.).”, “Scientific Inc., product number: B201-100),” for “Scientific Inc.),”, “MaxCyte SIX” for “MaxCyte STX”, “Inc.), product number: BLC-1),” for “Inc.),”, “until their” for “until”
as §2, §7, §3

human MC4 receptor, sequence (P32245 whole entry): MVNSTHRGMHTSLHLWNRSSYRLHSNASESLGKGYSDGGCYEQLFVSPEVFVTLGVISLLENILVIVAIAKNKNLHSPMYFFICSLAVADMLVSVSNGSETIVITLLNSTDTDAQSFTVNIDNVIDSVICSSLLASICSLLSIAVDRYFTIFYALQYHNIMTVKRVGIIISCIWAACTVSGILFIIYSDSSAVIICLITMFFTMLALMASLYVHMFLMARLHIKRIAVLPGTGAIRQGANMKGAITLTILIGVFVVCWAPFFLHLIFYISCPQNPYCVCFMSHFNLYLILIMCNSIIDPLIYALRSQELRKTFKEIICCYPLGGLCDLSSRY
human MC3 receptor, sequence (P41968 whole entry): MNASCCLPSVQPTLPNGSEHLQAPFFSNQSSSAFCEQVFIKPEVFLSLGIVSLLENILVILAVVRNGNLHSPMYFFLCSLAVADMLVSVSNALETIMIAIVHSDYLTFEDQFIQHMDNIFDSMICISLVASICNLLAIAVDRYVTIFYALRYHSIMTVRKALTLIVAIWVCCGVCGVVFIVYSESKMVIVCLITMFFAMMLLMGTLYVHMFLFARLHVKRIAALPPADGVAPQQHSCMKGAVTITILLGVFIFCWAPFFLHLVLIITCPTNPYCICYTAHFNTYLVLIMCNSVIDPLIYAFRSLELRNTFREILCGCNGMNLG
rat MC4 receptor, sequence (P70596 whole entry): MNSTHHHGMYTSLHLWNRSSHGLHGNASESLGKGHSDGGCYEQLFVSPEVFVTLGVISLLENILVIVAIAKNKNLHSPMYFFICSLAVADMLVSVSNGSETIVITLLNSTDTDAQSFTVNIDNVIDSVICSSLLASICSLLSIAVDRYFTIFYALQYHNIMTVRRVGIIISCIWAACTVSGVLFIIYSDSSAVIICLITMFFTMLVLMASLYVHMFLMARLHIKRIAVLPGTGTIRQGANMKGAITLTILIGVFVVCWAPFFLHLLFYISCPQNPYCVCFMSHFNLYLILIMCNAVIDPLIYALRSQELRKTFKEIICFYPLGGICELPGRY

Cc1ccc(C[C@@H](C(=O)O)N2CCN(C(=O)[C@@H]3CN(C(C)(C)C)C[C@H]3c3ccc(Cl)cc3F)[C@@H](C)C2)c(F)c1 [Example 4, (2S)-2-[(3S)-4-{[(3S,4R)-1-tert-butyl-4-(4-chloro-2-fluorophenyl)pyrrolidin-3-yl]carbonyl}-3-methylpiperazin-1-yl]-3-(2-fluoro-4-methylphenyl)propanoic acid dihydrochloride]
EC50 [1]: 0.0013 µM | EC50 [2]: 0.0015 µM | EC50 [3]: 0.18 µM

C[C@H]1CN([C@@H](Cc2ccc3c(c2)CCC3)C(=O)O)CCN1C(=O)[C@@H]1CN(C(C)(C)C)C[C@H]1c1ccc(F)cc1F [Example 5, (2S)-2-[(3S)-4-{[(3S,4R)-1-tert-butyl-4-(2,4-difluorophenyl)pyrrolidin-3-yl]carbonyl}-3-methylpiperazin-1-yl]-3-(2,3-dihydro-1H-inden-5-yl)propanoic acid dihydrochloride]
EC50 [1]: 0.026 µM | EC50 [2]: 0.025 µM | EC50 [3]: 4.2 µM

CCC[C@H]1CN([C@@H](Cc2ccc3ccccc3c2)C(=O)O)CCN1C(=O)[C@@H]1CN(C(C)(C)C)C[C@H]1c1ccc(F)cc1F [Example 9]
EC50 [1]: 0.0026 µM | EC50 [2]: 0.0032 µM | EC50 [3]: 0.91 µM

Cc1ccc(C[C@@H](C(=O)O)N2CCN(C(=O)[C@@H]3CN(C(C)(C)C)C[C@H]3c3ccc(Cl)cc3F)[C@@H](C)C2)cc1 [Example 11]
EC50 [1]: 0.021 µM | EC50 [2]: 0.017 µM | EC50 [3]: 3.7 µM

Cc1cc(F)c(C[C@@H](C(=O)O)N2CCN(C(=O)[C@@H]3CN(C(C)(C)C)C[C@H]3c3ccc(Cl)cc3F)[C@@H](C)C2)c(F)c1 [Example 76]
EC50 [1]: 0.0017 µM | EC50 [2]: 0.00096 µM | EC50 [3]: 0.33 µM

Cc1ccc(C[C@@H](C(=O)O)N2CCN(C(=O)[C@@H]3CN(C4CCOCC4)C[C@H]3c3ccc(Cl)cc3F)[C@@H](C)C2)c(F)c1 [Example 87, (2S)-2-[(3S)-4-{[(3S,4R)-4-(4-chloro-2-fluorophenyl)-1-(tetrahydro-2H-pyran-4-yl)pyrrolidin-3-yl]carbonyl}-3-methylpiperazin-1-yl]-3-(2-fluoro-4-methylphenyl)propanoic acid dihydrochloride]
EC50 [1]: 0.021 µM | EC50 [2]: 0.011 µM | EC50 [3]: 0.92 µM

Cc1cc(C)c(C[C@@H](C(=O)O)N2CCN(C(=O)[C@@H]3CN(C4CCOCC4)C[C@H]3c3ccc(Cl)cc3F)[C@@H](C)C2)c(F)c1 [Example 88]
EC50 [1]: 0.011 µM | EC50 [2]: 0.012 µM | EC50 [3]: 0.88 µM

Cc1cc(C)c(C[C@@H](C(=O)O)N2CCN(C(=O)[C@@H]3CN(C(C)(C)C)C[C@H]3c3ccc(Cl)cc3F)[C@@H](C)C2)c(C)c1 [Example 89]
EC50 [1]: 0.0031 µM | EC50 [2]: 0.003 µM | EC50 [3]: 0.78 µM
